Reference: article PMC7747769 (AIChE journal. American Institute of Chemical Engineers, 2019)

What was measured:
DR1 [1] = settings: DR1 and HA306–318 peptide; cited from earlier work
DR1 [2] = type: binding, human

DNP-PKYVKQNTLKLAT [HA306–318]
IC50 (DR1 [1]): ~34 nM | SDS stability of DR1 complex (DR1 [2]): migrated as an SDS-stable heterodimer
